# Results as given in ChEMBL document CHEMBL1208748 (Bioorg Med Chem Lett, 2010).
# How the values were obtained:
# Carbonic anhydrase 3 = Carbonic anhydrase 3 (Homo sapiens, UniProt P07451)
# Carbonic anhydrase 13 = Carbonic anhydrase 13 (Homo sapiens, UniProt Q8N1Q1); test: Inhibition of human recombinant carbonic anhydrase 13 after 15 mins by stopped-flow CO2 hydration assay
# Carbonic anhydrase 12 = Carbonic anhydrase 12 (Homo sapiens, UniProt O43570)
# Carbonic anhydrase 15 = biological target: T1, Carbonic anhydrase 15 (Mus musculus, UniProt Q99N23)
# T1 sequence (Q99N23 whole entry): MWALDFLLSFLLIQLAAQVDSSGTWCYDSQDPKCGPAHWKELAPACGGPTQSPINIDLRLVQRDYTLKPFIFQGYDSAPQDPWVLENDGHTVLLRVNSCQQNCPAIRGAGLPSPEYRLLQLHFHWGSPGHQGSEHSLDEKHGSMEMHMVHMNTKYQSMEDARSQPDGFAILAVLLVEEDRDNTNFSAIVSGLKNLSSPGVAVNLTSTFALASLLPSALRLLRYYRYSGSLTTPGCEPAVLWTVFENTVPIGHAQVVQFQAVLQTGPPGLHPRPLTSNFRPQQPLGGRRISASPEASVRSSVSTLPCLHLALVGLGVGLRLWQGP
# Carbonic anhydrase 9 = Carbonic anhydrase 9 (Homo sapiens, UniProt Q16790)
# Carbonic anhydrase 7 = Carbonic anhydrase 7 (Homo sapiens, UniProt P43166)
# Carbonic anhydrase 7, sequence (P43166 whole entry): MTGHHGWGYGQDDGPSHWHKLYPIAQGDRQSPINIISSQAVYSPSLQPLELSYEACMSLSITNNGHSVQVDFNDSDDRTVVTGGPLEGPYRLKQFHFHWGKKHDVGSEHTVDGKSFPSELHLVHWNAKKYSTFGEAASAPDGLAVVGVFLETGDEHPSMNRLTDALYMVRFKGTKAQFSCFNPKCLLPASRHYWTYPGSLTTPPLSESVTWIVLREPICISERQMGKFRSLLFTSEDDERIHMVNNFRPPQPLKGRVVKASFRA
# Carbonic anhydrase 1 = Carbonic anhydrase 1 (Homo sapiens, UniProt P00915)
# Carbonic anhydrase 1, sequence (P00915 whole entry): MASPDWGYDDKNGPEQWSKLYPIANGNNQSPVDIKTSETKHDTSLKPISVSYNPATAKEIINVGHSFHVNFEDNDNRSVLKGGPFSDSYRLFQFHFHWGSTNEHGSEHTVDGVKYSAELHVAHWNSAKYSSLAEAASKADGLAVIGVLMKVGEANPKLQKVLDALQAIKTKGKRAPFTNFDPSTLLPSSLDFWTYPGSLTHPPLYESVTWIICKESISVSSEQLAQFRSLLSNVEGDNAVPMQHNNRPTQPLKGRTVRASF
# [1] = biological target: Carbonic anhydrase 5B, mitochondrial (Homo sapiens, UniProt Q9Y2D0)
# Carbonic anhydrase 5B, mitochondrial, sequence (Q9Y2D0 whole entry): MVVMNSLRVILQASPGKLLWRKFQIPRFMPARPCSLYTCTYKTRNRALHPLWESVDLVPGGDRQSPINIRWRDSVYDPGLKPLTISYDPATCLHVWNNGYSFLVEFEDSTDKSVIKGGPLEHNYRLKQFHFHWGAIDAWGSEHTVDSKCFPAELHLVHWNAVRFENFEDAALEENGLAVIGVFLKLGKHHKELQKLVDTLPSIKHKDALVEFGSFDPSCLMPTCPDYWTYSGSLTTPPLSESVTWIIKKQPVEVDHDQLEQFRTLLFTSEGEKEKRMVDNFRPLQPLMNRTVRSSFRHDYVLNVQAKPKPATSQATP
# Carbonic anhydrase 14 = Carbonic anhydrase 14 (Homo sapiens, UniProt Q9ULX7); test: Inhibition of human recombinant carbonic anhydrase 14 after 15 mins by stopped-flow CO2 hydration assay
# Carbonic anhydrase 14, sequence (Q9ULX7 whole entry): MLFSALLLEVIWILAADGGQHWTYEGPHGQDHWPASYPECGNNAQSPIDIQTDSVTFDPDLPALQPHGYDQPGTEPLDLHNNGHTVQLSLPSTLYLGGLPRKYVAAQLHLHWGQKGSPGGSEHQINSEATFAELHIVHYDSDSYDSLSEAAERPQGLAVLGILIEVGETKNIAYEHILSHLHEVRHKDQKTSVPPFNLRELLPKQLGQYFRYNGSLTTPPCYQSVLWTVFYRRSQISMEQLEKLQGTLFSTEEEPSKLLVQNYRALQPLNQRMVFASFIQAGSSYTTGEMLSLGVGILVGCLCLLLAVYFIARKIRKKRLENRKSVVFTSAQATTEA
# [2] = biological target: Carbonic anhydrase 5A, mitochondrial (Homo sapiens, UniProt P35218); test: Inhibition of human recombinant carbonic anhydrase 5a after 15 mins by stopped-flow CO2 hydration assay
# Carbonic anhydrase 5A, mitochondrial, sequence (P35218 whole entry): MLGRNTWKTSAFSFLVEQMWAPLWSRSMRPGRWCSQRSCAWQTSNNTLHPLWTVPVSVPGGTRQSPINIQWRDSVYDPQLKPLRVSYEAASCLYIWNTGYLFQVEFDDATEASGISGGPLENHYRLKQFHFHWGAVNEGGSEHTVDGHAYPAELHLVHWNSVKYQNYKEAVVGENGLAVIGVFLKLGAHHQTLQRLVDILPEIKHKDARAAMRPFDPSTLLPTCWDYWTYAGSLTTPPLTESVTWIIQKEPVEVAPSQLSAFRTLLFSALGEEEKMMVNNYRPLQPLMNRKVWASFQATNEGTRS
# Carbonic anhydrase 3, sequence (P07451 whole entry): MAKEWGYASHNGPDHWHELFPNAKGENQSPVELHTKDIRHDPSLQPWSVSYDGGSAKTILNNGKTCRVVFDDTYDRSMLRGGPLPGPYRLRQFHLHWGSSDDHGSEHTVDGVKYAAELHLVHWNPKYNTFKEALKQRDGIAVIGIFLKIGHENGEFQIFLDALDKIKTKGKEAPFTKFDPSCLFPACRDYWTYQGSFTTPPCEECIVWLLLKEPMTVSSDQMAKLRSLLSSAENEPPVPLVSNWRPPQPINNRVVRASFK
# Carbonic anhydrase 12, sequence (O43570 whole entry): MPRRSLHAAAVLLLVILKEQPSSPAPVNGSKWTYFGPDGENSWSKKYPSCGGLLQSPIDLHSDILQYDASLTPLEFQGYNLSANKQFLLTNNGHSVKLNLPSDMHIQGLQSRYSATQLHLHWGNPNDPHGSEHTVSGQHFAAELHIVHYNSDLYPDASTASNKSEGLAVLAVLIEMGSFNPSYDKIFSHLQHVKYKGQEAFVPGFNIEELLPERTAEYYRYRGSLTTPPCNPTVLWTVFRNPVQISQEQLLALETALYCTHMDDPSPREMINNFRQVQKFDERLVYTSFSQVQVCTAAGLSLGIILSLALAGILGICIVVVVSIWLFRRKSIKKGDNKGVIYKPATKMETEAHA
# Carbonic anhydrase 13, sequence (Q8N1Q1 whole entry): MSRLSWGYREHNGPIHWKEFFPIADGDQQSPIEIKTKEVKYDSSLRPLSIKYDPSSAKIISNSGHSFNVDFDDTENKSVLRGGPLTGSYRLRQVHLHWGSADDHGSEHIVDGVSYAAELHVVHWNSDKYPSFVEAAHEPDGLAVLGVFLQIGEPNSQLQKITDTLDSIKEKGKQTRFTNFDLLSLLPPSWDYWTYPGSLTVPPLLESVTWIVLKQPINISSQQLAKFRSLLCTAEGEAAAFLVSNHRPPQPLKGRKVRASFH
Structure (SMILES),Ki (Carbonic anhydrase 3) [nM],Ki (Carbonic anhydrase 13) [nM],Ki (Carbonic anhydrase 12) [nM],Ki (Carbonic anhydrase 15) [nM],Ki (Carbonic anhydrase 9) [nM],Ki (Carbonic anhydrase 7) [nM],Ki (Carbonic anhydrase 1) [nM],Ki [1] [nM],Ki (Carbonic anhydrase 14) [nM],Ki [2] [nM]
NS(=O)(=O)c1nnc(NC(=O)CC23CC4CC(CC(C4)C2)C3)s1,410000,–,4.7,719,49.5,48,362,–,–,–
NS(=O)(=O)c1nnc(NC(=O)C23CC4CC(CC(C4)C2)C3)s1,300000,–,2.8,652,6.4,35,883,–,–,–

# Now from value to compound:
Ki (Carbonic anhydrase 3) [nM],Ki (Carbonic anhydrase 13) [nM],Ki (Carbonic anhydrase 12) [nM],Ki (Carbonic anhydrase 15) [nM],Ki (Carbonic anhydrase 9) [nM],Ki (Carbonic anhydrase 7) [nM],Ki (Carbonic anhydrase 1) [nM],Ki [1] [nM],Ki (Carbonic anhydrase 14) [nM],Ki [2] [nM],Structure (SMILES)
150000,79,34,–,–,–,–,–,–,–,Nc1nnc(S(N)(=O)=O)s1
300000,–,–,34,–,–,–,–,–,–,Cc1cc(C)[n+](CCc2ccc(S(N)(=O)=O)cc2)c(C)c1
–,–,13,30,–,2.9,–,–,–,–,Nc1c(F)cc(S(=O)(=O)Nc2nnc(S(N)(=O)=O)s2)cc1Cl
70000,98,–,–,–,–,–,93,689,794,Cc1ccc(-c2cc(C(F)(F)F)nn2-c2ccc(S(N)(=O)=O)cc2)cc1 [CELECOXIB]
